Among the test systems are SNB-75; SF-539; ACHN; HCC 2998; K562; OVCAR-8; LOX IMVI; HCT-15; NCI-H23; OVCAR-3; A549; COLO 205; EKVX; SF-295; SK-MEL-5; NCI-H522; OVCAR-5; IGROV-1; PC-3.
Holding throughout (experiment): growth of human tumour cells (NCI), 48 h

Results on 12 compounds are retold here after ChEMBL document CHEMBL1201862, “PubChem BioAssay data set” (2004).

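A five-concentration, 48-hour dose response in 96-well plates underlies each endpoint, interpolated linearly between surrounding concentrations. The concentration for 50% growth inhibition is given as GI50.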 Active and inactive are the calls of the source. Cut-off read from the data, not from the text of the source: active = GI50 up to about 1.1 µM and inactive = higher.

`CCCCCCCCCCCC(=O)OCC1OC(n2cc(F)c(=O)[nH]c2=O)C(N)C(OC(=O)CCCCCCCCCCC)C1O` (configuration not stated): the GI50 was 49.7 µM (inactive) in the experiment with SNB-75; 69.7 µM (inactive) with SF-539; > 100 µM (inactive) in the experiment on ACHN; 45.3 µM (inactive) in the experiment on HCC 2998; 30.2 µM (inactive) in the experiment on K562; 93.1 µM (inactive) in the experiment with OVCAR-8. Besides, the GI50 with LOX IMVI is 88.3 µM (inactive); with HCT-15, more than 100 µM; in the experiment on NCI-H23, > 100 µM (inactive); in the experiment with OVCAR-3, 47.5 µM (inactive); with A549 it was > 100 µM (inactive); in the experiment with COLO 205, 68.4 µM (inactive). Moreover, the GI50 with EKVX was > 100 µM (inactive); in the experiment on SF-295, > 100 µM (inactive); in the experiment on SK-MEL-5, 0.59 µM (active); in the experiment on NCI-H522 it was 31.6 µM (inactive).
For the compound `CCCCCCN(CCCCCC)CCC(=O)c1ccc2cc(Br)c3ccccc3c2c1`, the GI50 in the experiment on SF-539 is 21.3 µM (inactive); with ACHN it was 54.1 µM (inactive); with HCC 2998, 41.3 µM (inactive); with K562 it was 41.1 µM (inactive); with OVCAR-8, 31.7 µM (inactive); with OVCAR-5, 78 µM (inactive). Besides, the GI50 is 32 µM (inactive) in the experiment on LOX IMVI; 33.8 µM in the experiment on HCT-15; 81.8 µM (inactive) with NCI-H23; 33 µM (inactive) with OVCAR-3; > 100 µM (inactive) in the experiment with A549; 22.6 µM (inactive) in the experiment on COLO 205. Further, the GI50 in the experiment with EKVX was > 100 µM (inactive); in the experiment with IGROV-1, 40.3 µM (inactive); with SF-295, 59 µM (inactive); in the experiment with SK-MEL-5, 26.1 µM (inactive); in the experiment on PC-3, 31.3 µM (inactive); in the experiment with NCI-H522 it was 25.5 µM (inactive).
Turning to `CCOC(=O)/C(Br)=C1\OC(=O)c2ccccc2-c2ccccc21`, the GI50 with SNB-75 was 26.4 µM (inactive); with SF-539, 25.1 µM (inactive); with ACHN, 52.6 µM (inactive); in the experiment on HCC 2998 it was 49.2 µM (inactive); in the experiment on K562, 21.1 µM (inactive); in the experiment on OVCAR-8 it was 49.8 µM (inactive). The GI50 in the experiment with OVCAR-5 was > 100 µM (inactive); with LOX IMVI it was 36.8 µM (inactive); in the experiment on HCT-15, 48.4 µM; in the experiment on NCI-H23, 57.8 µM (inactive); with OVCAR-3, 37.4 µM (inactive); in the experiment with A549, 40.3 µM (inactive). Further, the GI50 with COLO 205 was 20.8 µM (inactive); in the experiment with EKVX it was > 100 µM (inactive); in the experiment on IGROV-1 it was 63.5 µM (inactive); in the experiment with SF-295 it was 36.5 µM (inactive); in the experiment on SK-MEL-5 it was 37.1 µM (inactive); with NCI-H522, 23 µM (inactive).
Turning to `CCO/C([O-])=C(\C(=O)c1ccc([N+](=O)[O-])cc1)[n+]1c(C)n(C)c2ccccc21`, the GI50 in the experiment with SNB-75, in the experiment with SF-539, in the experiment with HCC 2998, in the experiment with K562, with OVCAR-8 and in the experiment with OVCAR-5 was > 100 µM (inactive) throughout. For the same compound, the GI50 in the experiment with LOX IMVI, with NCI-H23, with OVCAR-3, with A549, with COLO 205 and with EKVX was > 100 µM (inactive) each time. Moreover, the GI50 in the experiment on IGROV-1, in the experiment with SF-295, in the experiment on SK-MEL-5 and with NCI-H522 was > 100 µM (inactive) in each case.
For the compound `COC(=O)C(C(=O)c1ccccc1)C(C(=O)C(=O)Nc1ccc(OC)cc1OC)C(=O)C(=O)c1ccc(C)cc1` (configuration not stated), the GI50 in the experiment with SNB-75, in the experiment with SF-539, with ACHN, with HCC 2998, in the experiment with K562 and in the experiment with OVCAR-8 was > 100 µM (inactive) each time. The GI50 in the experiment with OVCAR-5 is > 100 µM (inactive); in the experiment on LOX IMVI it was > 100 µM (inactive); with HCT-15, more than 100 µM; with NCI-H23 it was > 100 µM (inactive); with OVCAR-3, > 100 µM (inactive); in the experiment on A549 it was > 100 µM (inactive). In addition, the GI50 with COLO 205, in the experiment with EKVX, with IGROV-1, in the experiment with SF-295, in the experiment on SK-MEL-5 and in the experiment with NCI-H522 was > 100 µM (inactive) in each case.
As to `O=C(O)CCCCCOc1cccnc1/C=N/NC1=NCCN1`, the GI50 was 20.7 µM (inactive) in the experiment on SNB-75; > 100 µM (inactive) in the experiment on SF-539; > 100 µM (inactive) in the experiment with ACHN; > 100 µM (inactive) in the experiment with HCC 2998; > 100 µM (inactive) with K562; > 100 µM (inactive) in the experiment on OVCAR-8. Further, the GI50 is > 100 µM (inactive) with OVCAR-5; > 100 µM (inactive) in the experiment with LOX IMVI; more than 100 µM in the experiment with HCT-15; > 100 µM (inactive) in the experiment on NCI-H23; > 100 µM (inactive) with OVCAR-3; > 100 µM (inactive) in the experiment with A549. The GI50 with COLO 205, in the experiment on EKVX, in the experiment on IGROV-1, with SF-295, in the experiment with SK-MEL-5 and in the experiment with NCI-H522 was > 100 µM (inactive) in each case.
Consider `COC(=O)c1nc(N)nc(O)c1-c1ccc(Cl)cc1`, for which the GI50 in the experiment on SNB-75, in the experiment on SF-539, with ACHN, in the experiment on HCC 2998, in the experiment on K562 and in the experiment on OVCAR-8 was > 100 µM (inactive) in each case. For the same compound, the GI50 was > 100 µM (inactive) in the experiment on OVCAR-5; > 100 µM (inactive) in the experiment on LOX IMVI; more than 100 µM with HCT-15; > 100 µM (inactive) in the experiment on NCI-H23; > 100 µM (inactive) in the experiment on OVCAR-3; > 100 µM (inactive) in the experiment with A549. Besides, the GI50 in the experiment with COLO 205, with EKVX, with IGROV-1, in the experiment on SF-295, in the experiment on SK-MEL-5 and in the experiment on NCI-H522 was > 100 µM (inactive) in each case.
With `O=C1c2ccccc2C(=O)C1C(c1ccc([N+](=O)[O-])cc1)C1C(=O)c2ccccc2C1=O`, the GI50 is 38.6 µM (inactive) with SNB-75; 73.8 µM (inactive) in the experiment on SF-539; > 100 µM (inactive) in the experiment with ACHN; > 100 µM (inactive) in the experiment with HCC 2998; > 100 µM (inactive) with K562; 25.5 µM (inactive) in the experiment with OVCAR-8. In addition, the GI50 was > 100 µM (inactive) in the experiment with OVCAR-5; 18 µM (inactive) in the experiment with LOX IMVI; 63.1 µM in the experiment with HCT-15; 34.9 µM (inactive) in the experiment on NCI-H23; 18.5 µM (inactive) with OVCAR-3; > 100 µM (inactive) in the experiment on A549. The GI50 with COLO 205 is > 100 µM (inactive); with EKVX, > 100 µM (inactive); with SF-295, > 100 µM (inactive); in the experiment on SK-MEL-5 it was > 100 µM (inactive); in the experiment with NCI-H522, 63.4 µM (inactive).
Turning to `C1=C(c2ccccc2)CN(c2ccccc2)OC1`, the GI50 was 66.4 µM (inactive) with SNB-75; > 100 µM (inactive) in the experiment on SF-539; 63.2 µM (inactive) in the experiment on ACHN; > 100 µM (inactive) in the experiment on HCC 2998; 77.4 µM (inactive) in the experiment with K562; 26.8 µM (inactive) in the experiment on OVCAR-5. Besides, the GI50 is > 100 µM (inactive) in the experiment with LOX IMVI; 77.4 µM with HCT-15; 89.7 µM (inactive) in the experiment on NCI-H23; > 100 µM (inactive) with OVCAR-3; 85.9 µM (inactive) with A549; > 100 µM (inactive) with COLO 205. Also, the GI50 is 86.9 µM (inactive) with EKVX, > 100 µM (inactive) in the experiment with IGROV-1 and 18.6 µM (inactive) with NCI-H522.
As for `CCC(/C(=N/NC(=O)C[N+](C)(C)C)c1ccccc1)C1OC(=O)c2ccccc21` (configuration not stated), the GI50 in the experiment on SNB-75, in the experiment on SF-539, in the experiment with ACHN, in the experiment with HCC 2998, with K562 and in the experiment on OVCAR-8 was > 100 µM (inactive) each time. The GI50 is > 100 µM (inactive) with OVCAR-5; > 100 µM (inactive) with LOX IMVI; more than 100 µM in the experiment with HCT-15; > 100 µM (inactive) in the experiment on NCI-H23; > 100 µM (inactive) with OVCAR-3; > 100 µM (inactive) in the experiment on A549. Further, the GI50 in the experiment with COLO 205, in the experiment on IGROV-1, in the experiment with SF-295, in the experiment with SK-MEL-5 and in the experiment on NCI-H522 was > 100 µM (inactive) in each case.
Regarding `O=C(CCc1nnc(S)[nH]1)Nc1ccccc1Cl`, the GI50 in the experiment on SNB-75, in the experiment on SF-539, in the experiment on ACHN, in the experiment on HCC 2998, in the experiment on K562 and in the experiment on OVCAR-8 was > 100 µM (inactive) each time. The GI50 in the experiment with OVCAR-5 was > 100 µM (inactive); in the experiment with LOX IMVI, > 100 µM (inactive); with HCT-15 it was 20.2 µM; in the experiment with NCI-H23, > 100 µM (inactive); in the experiment on OVCAR-3, > 100 µM (inactive); in the experiment with A549, > 100 µM (inactive). In addition, the GI50 in the experiment with COLO 205, in the experiment with EKVX, in the experiment with IGROV-1, in the experiment on SF-295, with SK-MEL-5 and in the experiment on NCI-H522 was > 100 µM (inactive) in each case.
`Cc1nc2ccccc2c(=O)[nH]1`: the GI50 in the experiment on SNB-75 was 37.1 µM (inactive); in the experiment with SF-539, > 100 µM (inactive); with ACHN, > 100 µM (inactive); in the experiment on HCC 2998 it was > 100 µM (inactive); in the experiment on K562, > 100 µM (inactive); in the experiment with OVCAR-8 it was > 100 µM (inactive). For the same compound, the GI50 in the experiment on OVCAR-5 was > 100 µM (inactive); in the experiment on LOX IMVI it was > 100 µM (inactive); with HCT-15 it was more than 100 µM; with NCI-H23 it was > 100 µM (inactive); with OVCAR-3 it was > 100 µM (inactive); in the experiment with A549, > 100 µM (inactive). Further, the GI50 in the experiment with COLO 205, in the experiment with EKVX, with IGROV-1, in the experiment with SF-295, with SK-MEL-5 and in the experiment with NCI-H522 was > 100 µM (inactive) each time.
